Measurements reported in paper PMC8703412 (Pharmaceuticals, 2021).
≈ marks a conversion by molar mass, not a printed value. Read-outs that look alike come from different tables or passages of the source.

Legend:
[1] = test system: Mycobacterium tuberculosis strain 331/88 (i.e., H37Rv); experiment: MIC micromethod in Šula's medium, drug-susceptible Mtb.; format: cell-based; settings: Mycobacterium tuberculosis, H37RV
[2] = test system: Mycobacterium avium 330/88; experiment: MIC micromethod in Šula's medium, M. avium; format: cell-based; settings: Mycobacterium avium
[3] = test system: Mycobacterium kansasii 6509/96 (clinical isolate); experiment: MIC micromethod in Šula's medium, M. kansasii; format: cell-based; settings: Mycobacterium kansasii
[4] = Cytotoxicity, CellTiter 96 (MTS) assay; settings: human, Cytotoxicity for HepG2 cells, IC50, 24 h incubation, 1–1000 µM
[5] = 336 h, 14 d incubation, precursors, Table 2, read-out: MIC Mtb. 331/88 14 d
[6] = 504 h, 21 d incubation, precursors, Table 2, read-out: MIC Mtb. 331/88 21 d
[7] = 330/88, 336 h, 14 d incubation, precursors, Table 2, read-out: MIC M. avium 330/88 14 d
[8] = 330/88, 504 h, 21 d incubation, precursors, Table 2, read-out: MIC M. avium 330/88 21 d
[9] = 336 h, 14 d incubation, precursors, Table 2, read-out: MIC M. kansasii 6509/96 14 d
[10] = 504 h, 21 d incubation, precursors, Table 2, read-out: MIC M. kansasii 6509/96 21 d
[11] = 336 h, 14 d incubation, esters, Table 1, read-out: MIC Mtb. 331/88 14 d
[12] = 504 h, 21 d incubation, esters, Table 1, read-out: MIC Mtb. 331/88 21 d
[13] = 330/88, 336 h, 14 d incubation, Table 1, read-out: MIC M. avium 330/88 14 d
[14] = 330/88, 504 h, 21 d incubation, Table 1, read-out: MIC M. avium 330/88 21 d
[15] = 168 h, 7 d incubation, Table 1, read-out: MIC M. kansasii 6509/96 7 d
[16] = 336 h, 14 d incubation, Table 1, read-out: MIC M. kansasii 6509/96 14 d
[17] = 504 h, 21 d incubation, Table 1, read-out: MIC M. kansasii 6509/96 21 d
[18] = 504 h, text summary over 7, 14 and 21 d, read-out: MIC for M. kansasii 6509/96

Compound	MIC [1, 5]	MIC [1, 6]	MIC [2, 7]	MIC [2, 8]	MIC ([3]; 168 h, 7 d incubation, precursors, Table 2, read-out: MIC M. kansasii 6509/96 7 d)	MIC [3, 9]	MIC [3, 10]	MIC ([3]; 168 h, read-out: MIC M. kansasii 6509/96 7 d)	MIC [1, 11]	MIC [1, 12]	MIC [2, 13]	MIC [2, 14]	MIC [3, 15]	MIC [3, 16]	MIC [3, 17]	melting point	IC50 at 24 h [4]	MIC [3, 18]	MIC ([1]; 504 h, 14 and 21 d, read-out: MIC for Mtb.)
Oc1cccc2ccccc12 [1-naphthol, reference compound]	250 µM (≈ 36 µg/mL)	500 µM (≈ 72.1 µg/mL)	500 µM (≈ 72.1 µg/mL)	500 µM (≈ 72.1 µg/mL)	125 µM (≈ 18 µg/mL)	250 µM (≈ 36 µg/mL)	500 µM (≈ 72.1 µg/mL)												
Oc1ccc2ccccc2c1 [2-naphthol, reference compound]	500 µM (≈ 72.1 µg/mL)	500 µM (≈ 72.1 µg/mL)	1000 µM (≈ 144 µg/mL)	1000 µM (≈ 144 µg/mL)		500 µM (≈ 72.1 µg/mL)	500 µM (≈ 72.1 µg/mL)	250 µM (≈ 36 µg/mL)											
COC(=O)/C(C)=N/NC(=O)c1ccncc1 [3a, Methyl (E)-2-(2-isonicotinoylhydrazineylidene)propanoate]									0.25 µM (≈ 0.0553 µg/mL)	0.25 µM (≈ 0.0553 µg/mL)	500 µM (≈ 111 µg/mL)	1000 µM (≈ 221 µg/mL)	2 µM (≈ 0.442 µg/mL)	4 µM (≈ 0.885 µg/mL)	8 µM (≈ 1.77 µg/mL)	122 to 124.8 °C	> 1000 µM		
C/C(=N\NC(=O)c1ccncc1)C(=O)Oc1ccccc1 [3b, Phenyl (E)-2-(2-isonicotinoylhydrazineylidene)propanoate]									0.125 µM (≈ 0.0354 µg/mL)	0.25 µM (≈ 0.0708 µg/mL)	> 250 µM	> 250 µM	8 µM (≈ 2.27 µg/mL)	8 µM (≈ 2.27 µg/mL)	8 µM (≈ 2.27 µg/mL)	186 to 189 °C	> 1000 µM		
C/C(=N\NC(=O)c1ccncc1)C(=O)Oc1ccc(C)cc1 [3c, p-Tolyl (E)-2-(2-isonicotinoylhydrazineylidene)propanoate]									≤ 0.25 µM	0.5 µM (≈ 0.149 µg/mL)	> 250 µM	> 250 µM	8 µM (≈ 2.38 µg/mL)	8 µM (≈ 2.38 µg/mL)	8 µM (≈ 2.38 µg/mL)	168 to 170 °C	> 1000 µM		
COc1ccc(OC(=O)/C(C)=N/NC(=O)c2ccncc2)cc1 [3d, 4-Methoxyphenyl (E)-2-(2-isonicotinoylhydrazineylidene)propanoate]									0.25 µM (≈ 0.0783 µg/mL)	0.25 µM (≈ 0.0783 µg/mL)	500 µM (≈ 157 µg/mL)	1000 µM (≈ 313 µg/mL)	4 µM (≈ 1.25 µg/mL)	8 µM (≈ 2.51 µg/mL)	8 µM (≈ 2.51 µg/mL)	169 to 172 °C	> 1000 µM		
C/C(=N\NC(=O)c1ccncc1)C(=O)Oc1ccc(F)cc1 [3f, 4-Fluorophenyl (E)-2-(2-isonicotinoylhydrazineylidene)propanoate]									0.25 µM (≈ 0.0753 µg/mL)	0.5 µM (≈ 0.151 µg/mL)	500 µM (≈ 151 µg/mL)	500 µM (≈ 151 µg/mL)	2 µM (≈ 0.603 µg/mL)	4 µM (≈ 1.21 µg/mL)	4 µM (≈ 1.21 µg/mL)	174.1 to 177.2 °C	> 1000 µM		
C/C(=N\NC(=O)c1ccncc1)C(=O)Oc1ccc(Cl)cc1 [3g, 4-Chlorophenyl (E)-2-(2-isonicotinoylhydrazineylidene)propanoate]									≤ 0.125 µM	≤ 0.125 µM	500 µM (≈ 159 µg/mL)	1000 µM (≈ 318 µg/mL)	4 µM (≈ 1.27 µg/mL)	8 µM (≈ 2.54 µg/mL)	16 µM (≈ 5.08 µg/mL)	184 to 186.1 °C	> 1000 µM		
C/C(=N\NC(=O)c1ccncc1)C(=O)Oc1ccc(Br)cc1 [3h, 4-Bromophenyl (E)-2-(2-isonicotinoylhydrazineylidene)propanoate]									≤ 0.125 µM	0.25 µM (≈ 0.0905 µg/mL)	250 µM (≈ 90.5 µg/mL)	500 µM (≈ 181 µg/mL)	8 µM (≈ 2.9 µg/mL)	8 µM (≈ 2.9 µg/mL)	16 µM (≈ 5.79 µg/mL)	190 to 192 °C	> 1000 µM	8 to 16 µM (≈ 2.9 to 5.79 µg/mL)	
C/C(=N\NC(=O)c1ccncc1)C(=O)OCc1ccncc1 [3n, Pyridin-4-ylmethyl (E)-2-(2-isonicotinoylhydrazineylidene)propanoate]									0.5 µM (≈ 0.149 µg/mL)	1 µM (≈ 0.298 µg/mL)	≥ 1000 µM	≥ 1000 µM	8 µM (≈ 2.39 µg/mL)	16 µM (≈ 4.77 µg/mL)	16 µM (≈ 4.77 µg/mL)	126 to 128 °C	> 1000 µM	8 to 16 µM (≈ 2.39 to 4.77 µg/mL)	0.5 to 1 µM (≈ 0.149 to 0.298 µg/mL)
CC(=O)Nc1ccc(OC(=O)C(C)=NNC(=O)c2ccncc2)cc1 [3p, 4-Acetamidophenyl 2-(2-isonicotinoylhydrazineylidene)propanoate]									0.25 µM (≈ 0.0851 µg/mL)	0.5 µM (≈ 0.17 µg/mL)	1000 µM (≈ 340 µg/mL)	1000 µM (≈ 340 µg/mL)	8 µM (≈ 2.72 µg/mL)	16 µM (≈ 5.45 µg/mL)	16 µM (≈ 5.45 µg/mL)		> 1000 µM	8 to 16 µM (≈ 2.72 to 5.45 µg/mL)	
